These compounds were tested on carcinoma cell line NCI-N87 (assay: Cytotoxicity assay of warheads (MTS, 7 days)). Settings: Homo sapiens, 168 h, NCI-N87, 7 days incubation, mean of three independent replicates.
Format: cell-based
Method: The potency of the molecules were measured via in vitro cytotox assays in the carcinoma cell line NCI-N87.
Solid material was dissolved in DMSO to a 2 mM stock solution, from which eight serial dilutions were made at a 1:10 ratio in DMSO and stored at −20° C. until use.
Adherent NCI-N87 cells were washed with D-PBS and detached with Trypsin-EDTA, cell density and viability were then determined in duplicate by Trypan blue exclusion assay using an automated cell counter (LUNA-II™). Cell suspension was diluted to 1×10^5 cells/ml in growth media (RPMI 1640 with Glutamax+10% (v/v) HyClone™ Fetal Bovine Serum) and vortexed before dispensing 2 mL per well into sterile 3 mL polypropylene plates. Warhead dilutions were then dispensed into the appropriate wells at 10 μl/well and mixed by repeat pipetting. For control wells 10 μl of DMSO was dispensed onto 2 mL cell suspension, and thoroughly mixed. 100 μl of each sample was then aliquoted into 2 replicate wells of a sterile flat 96-well microplate and incubated in a 37° C. CO2-gassed (5%) incubator. At the end of the incubation period time (7 days), cell viability was measured by CellTiter 96 Aqueous One (MTS) assay, which was dispensed at 20 μl/well and incubated for 4 hours at 37° C., 5% CO2. Plates were then read on an EnVision Multi-label Plate Reader (Perkin Elmer) using absorbance at 490 nm.
Cell survival percentage was calculated from the mean absorbance of the 2 replicate wells for each sample, compared to the mean absorbance in the two control wells treated with DMSO only (100%). The IC50 was determined by fitting each data set to sigmoidal dose-response curves with a variable slope using the non-linear curve fit algorithm on the GraphPad Prism software (San Diego, CA).
All the experiments in this report were carried out and tested in three independent experiments. Data are reported as the mean of the three independent replicates.

Row | SMILES | IC50 [nM]
1 | COc1cc2c(cc1OCCCCCOc1cc3c(cc1OC)C(=O)N1CC[C@H]1C=N3)N=C[C@@H]1CCN1C2=O [Ex1, (10aS,10a′S)-7,7′-(pentane-1,5-diylbis(oxy))bis(6-methoxy-1,10a-dihydroazeto[1,2-a]benzo[e][1,4]diazepin-4(2H)-one)] | 2.2
2 | COc1cc2c(cc1OCCCOc1cc3c(cc1OC)C(=O)N1CC[C@H]1C=N3)N=C[C@@H]1CCN1C2=O [Ex2A, (10aS,10a′S)-7,7′-(propane-1,3-diylbis(oxy))bis(6-methoxy-1,10a-dihydroazeto[1,2-a]benzo[e][1,4]diazepin-4(2H)-one)] | 70.1
3 | COc1cc2c(cc1OCc1cccc(COc3cc4c(cc3OC)C(=O)N3CC[C@H]3C=N4)c1)N=C[C@@H]1CCN1C2=O [Ex2B, (10aS,10a′S)-7,7′-((1,3-phenylenebis(methylene))bis(oxy))bis(6-methoxy-1,10a-dihydroazeto[1,2-a]benzo[e][1,4]diazepin-4(2H)-one)] | 4.04

From patent publication US12209099B2, “Azetidobenzodiazepine dimers and conjugates comprising them for use in the treatment of cancer” (MEDIMMUNE LIMITED, priority 2019, dated 2025)
